Results taken from patent US20260250318A1, “COMPOSITIONS AND METHODS FOR CROSSING THE BLOOD BRAIN BARRIER” (VOYAGER THERAPEUTICS, INC., priority 2022, published 2026).

Legend:
Conditions in all cases: synthetic library passage 3, intravenous, relative to wild-type AAV9
[1] = tested on: brain; test: NGS fold enrichment of synthetic library (passage 3) in C57Bl/6 mice, first cross-species screen; assay type: in vivo
Summary of the method: (§1)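 Synthetic capsid library (passage 3) was given intravenously […] to NHPs aged 2-4 years and to BALB/c and C57Bl/6 mice (n=3 each, 6-8 weeks). After about 28 days in vivo, tissue RNA was RT-PCR amplified and NGS-sequenced; values are fold enrichment per variant relative to wild-type AAV9.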

[2] = tested on: brain, spinal cord, and DRG of the NHPs; test: NGS fold enrichment of synthetic library (passage 3) in NHPs, first cross-species screen; assay type: in vivo, cynomolgus macaques (Macaca fascicularis)
Summary of the method: as §1

[3] = tested on: brain; test: NGS fold enrichment of synthetic library (passage 3) in BALB/c mice, first cross-species screen; assay type: in vivo
Summary of the method: as §1

[4] = RNA from brain of C57Bl/6 mice, NGS
[5] = RNA from spinal cord of NHPs, NGS
[6] = RNA from brain of BALB/c mice, NGS

Row | Sequence | Fold enrichment over AAV9 in the brain of Mice (C57Bl/6) ([1]; RNA NGS, brain of C57Bl/6 mice) | Fold enrichment over AAV9 in the brain of NHPs ([2]; RNA NGS, brain of NHPs) | Fold enrichment over AAV9 in the spinal cord of NHPs ([2]; RNA NGS, spinal cord of NHPs) | Fold enrichment over AAV9 in the brain of Mice (BALB/c) ([3]; RNA NGS, brain of BALB/c mice) | Fold enrichment over AAV9 in the brain of Mice (C57Bl/6) [1, 4] | Fold enrichment over AAV9 in the brain of NHPs ([2]; RNA from brain of NHPs, NGS) | Fold enrichment over AAV9 in the spinal cord of NHPs [2, 5] | Fold enrichment over AAV9 in the brain of Mice (BALB/c) [3, 6]
1 | GSRLVHVHGQNQQT | 1.277 fold | 2.334 fold | 1.174 fold | 0.934 fold |  |  |  | 
2 | GSRMTQQFGQNQQT | 1.233 fold | 1.720 fold | 25.798 fold | 0.976 fold |  |  |  | 
3 | GSRNGHAVGQNQQT | 0.434 fold | 1.574 fold | 2.688 fold | 0.939 fold |  |  |  | 
4 | GSRNGHTVGRNQQT | 1.162 fold | 1.993 fold | 0.000 fold | 0.367 fold |  |  |  | 
5 | GSRQSKRNELNQQT | 1.325 fold | 2.177 fold | 0.000 fold | 0.232 fold |  |  |  | 
6 | GSRSQYDIGQNQQT | 0.528 fold | 1.706 fold | 0.112 fold | 0.193 fold |  |  |  | 
7 | GSRSTGPSGQNQQT | 0.440 fold | 1.819 fold | 2.479 fold | 0.466 fold |  |  |  | 
8 | GSRTLSNVGQNQQT | 0.617 fold | 1.640 fold | 3.219 fold | 0.542 fold |  |  |  | 
9 | GSRTTQDIGQNQQT |  |  |  |  | 0.685 fold | 1.247 fold | 0.000 fold | 0.280 fold
10 | GSRTTQVIGQNQQT | 0.773 fold | 1.570 fold | 1.838 fold | 0.564 fold |  |  |  | 
11 | GSRTVPVYGQNQQT |  |  |  |  | 1.226 fold | 1.371 fold | 0.363 fold | 0.969 fold
12 | GSRTYQVSGQNQQT |  |  |  |  | 0.638 fold | 1.164 fold | 1.853 fold | 0.641 fold
13 | GSSGHRESGQNQQT | 0.641 fold | 1.048 fold | 4.398 fold | 0.691 fold |  |  |  | 
14 | GSSGIPVSHQNQQT | 0.820 fold | 1.690 fold | 3.384 fold | 0.333 fold |  |  |  | 
15 | GSSGRDMGGQNQQT | 1.052 fold | 1.778 fold | 2.177 fold | 0.595 fold |  |  |  | 
16 | GSSGSHQYGQNQQT |  |  |  |  | 1.129 fold | 1.155 fold | 0.000 fold | 0.794 fold
